One molecule from PMC6151529, “Design, Synthesis and Biological Evaluation of N,N-Substituted Amine Derivatives as Cholesteryl Ester Transfer Protein Inhibitors” (Molecules : A Journal of Synthetic Chemistry and Natural …, 2017) can be followed below.

SMILES strings stand for the structures. Some results are limits rather than exact numbers.

A short description of data set [1]: Metabolic stability in rat liver microsomes. The conditions noted are these: 37 °C, NADPH, 0-60 min, read-out: RLM Stability (rat liver microsomal intrinsic clearance). In kind it is in vitro ADME. On the procedure:
(§1) Ten μL (100 μM/L) of compound and 80 μL liver microsomes were mixture and incubated at 37 °C for 10 min, and then 10 μL NADPH regenerating system was added. Samples were obtained at 0 min, 5 min, 10 min, 20 min, 30 min and 60 min respectively, and 300 μL stop solution (cold in 4 °C, including 100 ng/mL tolbutamide and 100 ng/mL labetalol) was added to terminate the reaction. After oscillating for 10 min, the plates were centrifuged (4000 rpm) at room temperature for 20 min, and the supernatants were used for analyzation.
On the technique in general: Microsomes from liver hold many membrane-bound enzymes, among them those of drug oxidation.

The target in the next data set is T1, CYP2C9 (Homo sapiens, UniProt P11712).
T1 construct: from tissue; host or cells: human liver microsomes
Put plainly: Cytochrome P450 inhibition assay, CYP2C9. In kind it is in vitro ADME. The conditions noted are these: human liver microsomes, pH 7.4, probe diclofenac (5 μM), 10 μM compound, human liver microsomes 0.25 mg/mL, substrate diclofenac, read-out: CYPs Direct Inhibition Mean (10 μM) 2C9. On the procedure:
(§2) Five specific probe substrates (CYP3A4, 2 μM midazolam; CYP2D6, 5 μM dextromethorphan; CYP2C9, 5 μM diclofenac; CYP1A2, 10 μM phenacetin; CYP2C19, 30 μM S-mephenytoin) were used to evaluated cytochrome P450 inhibition in human liver microsomes (0.25 mg/mL). A mixture of 20 μL specific probe substrate solution and 20 μL buffer solution (100 mM K3PO4, 33 mM MgCl2, pH = 7.4) was added compound (2 μL) and 158 μL human liver microsomes solution (0.25 mg/mL). The mixture were incubated at 37 °C for 10 min and another 10 min underwent after 20 μL NADPH solution added. Consecutively, 400 µL cold stop solution (200 ng/mL tolbutamide and 200 ng/mL labetalol in acetonitrile) was added to terminated the reaction. After the reactions were terminated, The plates were centrifuged (4000 rpm) at room temperature for 20 min, and the supernatants were analysed by LC/MS/MS.

The target of another data set is T2, CETP (Homo sapiens, UniProt P11597).
T2 construct: purchased Roar, New York, NY, USA RB-RPAK
T2 sequence (P11597 18-493): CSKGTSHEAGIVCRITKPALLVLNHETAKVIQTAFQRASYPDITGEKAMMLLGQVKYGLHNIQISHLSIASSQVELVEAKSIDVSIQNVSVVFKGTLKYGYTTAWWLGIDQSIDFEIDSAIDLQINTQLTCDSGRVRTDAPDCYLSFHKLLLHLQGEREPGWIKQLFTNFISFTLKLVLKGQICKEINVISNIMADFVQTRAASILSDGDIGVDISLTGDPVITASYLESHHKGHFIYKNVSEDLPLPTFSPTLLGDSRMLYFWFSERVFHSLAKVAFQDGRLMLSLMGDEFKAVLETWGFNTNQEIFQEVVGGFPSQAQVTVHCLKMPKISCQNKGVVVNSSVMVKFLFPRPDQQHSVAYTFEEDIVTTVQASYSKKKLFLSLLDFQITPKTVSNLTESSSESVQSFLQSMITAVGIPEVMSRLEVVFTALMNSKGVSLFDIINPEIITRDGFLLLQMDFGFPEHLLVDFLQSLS
Nature of the data set: CETP inhibitory activity, BODIPY-CE fluorescence assay (CETP RP Activity Assay Kit). It is filed as biochemical. On the procedure:
All tested compounds were dissolved in 100% DMSO, making sure the compound was dissolved totally. The solution was vibrated hard on an oscillator for more than 30 s and then stored in a nitrogen cabinet. The stock solutions (10 mM) were diluted with DMSO for an 8-point titration (1:5 serial dilutions) in a 96-well dilution plate. […] Compounds were tested at eight concentrations, and the fluorescence intensity were measured using a fluorometer (ExEm = 465/535 nm). The IC50 was determined from a curve fit of the data with each concentration tested three times.

Another data set addresses T3, CYP1A2 (Homo sapiens, UniProt P05177).
T3 construct: from tissue; host or cells: human liver microsomes
T3 sequence (P05177 1-516): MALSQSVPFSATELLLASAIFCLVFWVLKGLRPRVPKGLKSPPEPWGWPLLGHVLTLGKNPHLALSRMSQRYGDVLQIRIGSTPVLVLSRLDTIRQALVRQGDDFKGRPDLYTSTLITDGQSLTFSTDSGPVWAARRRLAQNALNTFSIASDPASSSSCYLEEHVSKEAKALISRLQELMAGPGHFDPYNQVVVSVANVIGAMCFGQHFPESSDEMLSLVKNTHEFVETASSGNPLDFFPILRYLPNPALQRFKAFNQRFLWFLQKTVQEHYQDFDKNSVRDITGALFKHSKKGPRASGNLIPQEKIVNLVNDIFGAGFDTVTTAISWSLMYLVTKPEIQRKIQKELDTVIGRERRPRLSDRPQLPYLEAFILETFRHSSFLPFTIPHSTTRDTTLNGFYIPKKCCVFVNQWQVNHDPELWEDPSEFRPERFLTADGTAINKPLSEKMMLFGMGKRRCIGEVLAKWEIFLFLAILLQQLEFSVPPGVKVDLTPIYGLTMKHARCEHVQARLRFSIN
Put plainly: Cytochrome P450 inhibition assay, CYP1A2. In kind it is in vitro ADME. The conditions noted are these: 10 μM compound, human liver microsomes 0.25 mg/mL, substrate phenacetin. On the procedure:
as §2

The next data set concerns the target T4, CYP2D6 (Homo sapiens, UniProt P10635).
T4 construct: from tissue; host or cells: human liver microsomes
Nature of the data set: Cytochrome P450 inhibition assay, CYP2D6. It is filed as in vitro ADME. The conditions noted are these: 10 μM compound, human liver microsomes 0.25 mg/mL, substrate dextromethorphan. The method, then: as §2

For another data set, the target named is T5, CYP3A4 (Homo sapiens, UniProt P08684).
T5 construct: from tissue; host or cells: human liver microsomes
Put plainly: Cytochrome P450 inhibition assay, CYP3A4. In kind it is in vitro ADME. The conditions noted are these: human liver microsomes, pH 7.4, probe midazolam (2 μM), 10 μM compound, human liver microsomes 0.25 mg/mL, substrate midazolam, read-out: CYPs Direct Inhibition Mean (10 μM) 3A4. The method, then: as §2

Data set [2] can be described thus: Metabolic stability in human liver microsomes. In kind it is in vitro ADME. The conditions noted are these: 37 °C, NADPH, 0-60 min, read-out: HLM Stability (human liver microsomal intrinsic clearance). The method, then: as §1

T4 sequence (P10635 whole entry): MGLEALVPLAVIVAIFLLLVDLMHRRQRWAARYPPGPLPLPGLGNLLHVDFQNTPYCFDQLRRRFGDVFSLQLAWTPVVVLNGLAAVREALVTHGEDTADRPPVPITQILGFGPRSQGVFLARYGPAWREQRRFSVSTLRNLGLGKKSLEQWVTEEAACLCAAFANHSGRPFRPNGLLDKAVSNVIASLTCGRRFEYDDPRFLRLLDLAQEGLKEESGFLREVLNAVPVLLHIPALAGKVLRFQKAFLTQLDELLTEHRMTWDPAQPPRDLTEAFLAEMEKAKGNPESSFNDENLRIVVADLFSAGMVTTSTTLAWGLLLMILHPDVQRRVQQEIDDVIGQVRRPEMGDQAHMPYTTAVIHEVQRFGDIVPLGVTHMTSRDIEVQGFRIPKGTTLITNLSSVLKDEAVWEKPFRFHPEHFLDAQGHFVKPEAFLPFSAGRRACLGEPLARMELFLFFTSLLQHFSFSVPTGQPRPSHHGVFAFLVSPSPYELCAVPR
T1 sequence (P11712 whole entry): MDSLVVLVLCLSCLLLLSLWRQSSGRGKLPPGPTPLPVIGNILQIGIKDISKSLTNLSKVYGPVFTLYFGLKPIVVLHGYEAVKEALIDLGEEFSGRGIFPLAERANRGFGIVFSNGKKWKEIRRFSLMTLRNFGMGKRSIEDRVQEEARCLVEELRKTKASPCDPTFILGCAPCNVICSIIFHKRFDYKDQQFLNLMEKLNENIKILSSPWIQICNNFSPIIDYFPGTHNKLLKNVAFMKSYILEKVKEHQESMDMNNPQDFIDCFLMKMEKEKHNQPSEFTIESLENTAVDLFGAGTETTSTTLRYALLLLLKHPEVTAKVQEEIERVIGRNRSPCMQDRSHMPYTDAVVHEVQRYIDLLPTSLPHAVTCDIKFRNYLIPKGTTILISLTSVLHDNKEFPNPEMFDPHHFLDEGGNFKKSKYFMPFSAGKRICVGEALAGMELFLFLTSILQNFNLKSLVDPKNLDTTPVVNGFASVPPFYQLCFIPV
T5 sequence (P08684 whole entry): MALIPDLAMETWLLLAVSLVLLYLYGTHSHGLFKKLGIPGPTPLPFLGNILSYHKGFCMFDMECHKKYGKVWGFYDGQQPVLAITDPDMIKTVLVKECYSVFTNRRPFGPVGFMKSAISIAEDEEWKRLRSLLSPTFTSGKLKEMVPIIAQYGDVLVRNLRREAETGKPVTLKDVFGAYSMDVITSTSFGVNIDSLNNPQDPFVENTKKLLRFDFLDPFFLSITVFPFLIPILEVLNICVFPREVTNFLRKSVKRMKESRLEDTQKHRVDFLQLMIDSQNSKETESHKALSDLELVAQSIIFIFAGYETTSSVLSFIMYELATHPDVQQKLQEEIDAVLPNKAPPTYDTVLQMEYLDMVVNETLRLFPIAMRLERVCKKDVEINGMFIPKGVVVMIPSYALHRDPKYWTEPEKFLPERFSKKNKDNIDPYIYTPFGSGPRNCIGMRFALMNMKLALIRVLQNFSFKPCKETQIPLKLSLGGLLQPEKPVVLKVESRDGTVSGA

Turning to `COc1ccc(C(C)C)cc1C1=C(CN(Cc2cc(C(F)(F)F)cc(C(F)(F)F)c2)c2nnn(CC(=O)O)n2)CC(C)(C)CC1` [Compound 17, N-(3,5-Bis(trifluoromethyl)benzyl)-N-((2-(5-isopropyl-2-methoxyphenyl)-5,5-dimethylcyclohex-1-enyl)-methyl)-2H-tetrazol-5-amine-2-acetic acid], the microsomal CLint at 10 μM came to 146 µL/min/mg in data set [1] and 119 µL/min/mg in data set [2]. Besides, the inhibition (usually the percentage by which the read-out fell short of the control) at 10 min, 10 µM at CYP2C9 is below 20%; on CYP1A2 (pH 7.4, probe phenacetin (10 μM), read-out: CYPs Direct Inhibition Mean (10 μM) 1A2), below 20%; at CYP2D6 (pH 7.4, probe dextromethorphan (5 μM), read-out: CYPs Direct Inhibition Mean (10 μM) 2D6) it was below 20%; on CYP3A4 it was below 20%. Further, the “activity weaker than the reference compound (fold)” value on CETP (IC50 versus reference compound anacetrapib) stood at 10 fold. The 50% inhibitory concentration (IC50) (in general, the concentration that inhibits the measured activity by half) on CETP (read-out: IC50 (CETP inhibition)) stood at 380 ± 80 nM. In addition, at CYP1A2, the “CYPs Direct Inhibition Mean (10 μM) 1A2” value is given as “No inhibition”. Besides, the “CYPs Direct Inhibition Mean (10 μM) 2D6” value on CYP2D6 was “No inhibition”.
